Source: US20230066946A1, “1,5-DIPHENYLPYRAZOLYL-3-OXYALKYL ACIDS AND 1-PHENYL-5-THIENYLPYRAZOLYL-3-OXYALKYL ACIDS AND THE USE THEREOF FOR CONTROL OF UNWANTED PLANT GROWTH” (Bayer Aktiengesellschaft, priority 2019, published 2023)

Tests used:
[1] = tested on: MATIN; test: Pre-emergence herbicidal action against MATIN; format: in vivo, Matricaria inodora; settings: 1280 g/ha, scored visually after about 3 weeks vs untreated controls
Procedure, shortened: (§1)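 Pre-emergence, sandy loam, pots doubly sown. WP/EC formulations + 0.5% additive, 600 L/ha water, sprayed on soil surface; 1280 or 320 g/ha. Greenhouse ~3 wk; visual % effect vs untreated.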

[2] = tested on: SETVI; test: Pre-emergence herbicidal action against SETVI; format: in vivo, Setaria viridis; settings: 1280 g/ha, scored visually after about 3 weeks vs untreated controls
Procedure, shortened: as §1

[3] = tested on: VERPE; test: Post-emergence herbicidal action against VERPE; format: in vivo, Veronica persica; settings: 320 g/ha, visual rating about 3 weeks after treatment
Procedure, shortened: (§2)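 Rates of 1280 or 320 g/ha were sprayed onto green parts of one-leaf-stage plants grown in sandy loam pots, with 0.5% additive and 600 litres per hectare water. After about 3 weeks under optimum greenhouse conditions, activity is rated visually: 100% = dead plants, 0% = as control.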

[4] = tested on: VERPE; test: Pre-emergence herbicidal action against VERPE; format: in vivo, Veronica persica; settings: 320 g/ha, scored visually after about 3 weeks vs untreated controls
Procedure, shortened: as §1

[5] = tested on: STEME; test: Pre-emergence herbicidal action against STEME; format: in vivo, Stellaria media; settings: 1280 g/ha, scored visually after about 3 weeks vs untreated controls
Procedure, shortened: as §1

[6] = tested on: AMARE; test: Post-emergence herbicidal action against AMARE; format: in vivo, Amaranthus retroflexus; settings: visual rating about 3 weeks after treatment
Procedure, shortened: as §2

[7] = tested on: PHBPU; test: Post-emergence herbicidal action against PHBPU; format: in vivo, Pharbitis purpurea; settings: 320 g/ha, visual rating about 3 weeks after treatment
Procedure, shortened: as §2

[8] = tested on: PHBPU; test: Pre-emergence herbicidal action against PHBPU; format: in vivo, Pharbitis purpurea; settings: 1280 g/ha, scored visually after about 3 weeks vs untreated controls
From the text: (§3) Seeds of mono- and dicotyledonous weed plants are placed in plastic pots in sandy loam soil (doubly sown with one species each of mono- or dicotyledonous weed plants per pot) and covered with soil. The compounds of the invention, formulated in the form of wettable powders (WP) or as emulsion concentrates (EC), are then applied onto the surface of the covering soil as aqueous suspension or emulsion with addition of 0.5% additive at a water application rate equivalent to 600 litres per hectare. After the treatment, the pots are placed in a greenhouse and kept under good growth conditions for the trial plants. After about 3 weeks, the effect of the preparations is scored visually in comparison with untreated controls as percentages. For example, 100% activity=the plants have died, 0% activity=like control plants. [table] Tables 4.1-4.15 below show the effects of selected compounds of the general formula (I) according to Tables 1 to 3 on various harmful plants at an application rate corresponding to 1280 or 320 g/ha, which have been obtained by the aforementioned experimental method.

[9] = tested on: AMARE; test: Pre-emergence herbicidal action against AMARE; format: in vivo, Amaranthus retroflexus; settings: scored visually after about 3 weeks vs untreated controls; for Pre-emergence action at 320 g/ha against AMARE in %: 100% = plants have died, 0% = like control plants; for Pre-emergence action against AMARE in %: 1280 g/ha
Procedure, shortened: as §1

[10] = tested on: MATIN; test: Post-emergence herbicidal action against MATIN; format: in vivo, Matricaria inodora; settings: visual rating about 3 weeks after treatment
Procedure, shortened: as §2

[11] = tested on: STEME; test: Post-emergence herbicidal action against STEME; format: in vivo, Stellaria media; settings: visual rating about 3 weeks after treatment
Procedure, shortened: as §2

[12] = tested on: CYPES; test: Pre-emergence herbicidal action against CYPES; format: in vivo, Cyperus esculentus; settings: scored visually after about 3 weeks vs untreated controls, 100% = plants have died, 0% = like control plants
From the text: as §3

[13] = tested on: AVEFA; test: Post-emergence herbicidal action against AVEFA; format: in vivo, Avena fatua; settings: 1280 g/ha, post-emergence at one-leaf stage, rated visually after about 3 weeks vs untreated controls
Description: (§4) [table] Seeds of mono- and dicotyledonous weed plants are placed in plastic pots in sandy loam soil (twin sowing with one species each of mono- or dicotyledonous weed plants per pot), covered with soil and cultivated in a greenhouse under controlled growth conditions. 2 to 3 weeks after sowing, the test plants are treated at the one-leaf stage. The compounds of the invention, formulated in the form of wettable powders (WP) or as emulsion concentrates (EC), are applied to the green parts of the plants as aqueous suspension or emulsion with addition of 0.5% additive at a water application rate equivalent to 600 litres per hectare. After the test plants have been kept in the greenhouse under optimum growth conditions for about 3 weeks, the activity of the preparations is rated visually in comparison to untreated controls. For example, 100% activity=the plants have died, 0% activity=like control plants. Tables 5.1-5.16 below show the effects of selected compounds of the general formula (I) according to Tables 1 to 3 on various harmful plants at an application rate corresponding to 1280 or 320 g/ha, which have been obtained by the aforementioned experimental method.

[14] = tested on: VIOTR; test: Post-emergence herbicidal action against VIOTR; format: in vivo, Viola tricolor; settings: 320 g/ha, visual rating about 3 weeks after treatment
Procedure, shortened: as §2

[15] = tested on: ECHCG; test: Pre-emergence herbicidal action against ECHCG; format: in vivo, Echinochloa crus-galli; settings: scored visually after about 3 weeks vs untreated controls, 100% = plants have died, 0% = like control plants
Procedure, shortened: as §1

[16] = tested on: ECHCG; test: Post-emergence herbicidal action against ECHCG; format: in vivo, Echinochloa crus-galli; settings: 1280 g/ha, post-emergence at one-leaf stage, rated visually after about 3 weeks vs untreated controls
Procedure, shortened: as §2

[17] = tested on: SETVI; test: Post-emergence herbicidal action against SETVI; format: in vivo, Setaria viridis; settings: 1280 g/ha, post-emergence at one-leaf stage, rated visually after about 3 weeks vs untreated controls
Procedure, shortened: as §2

[18] = tested on: VIOTR; test: Pre-emergence herbicidal action against VIOTR; format: in vivo, Viola tricolor; settings: 1280 g/ha, scored visually after about 3 weeks vs untreated controls
From the text: as §3

[19] = tested on: harmful plants; test: Pre-emergence herbicidal action, summary of Tables 4.1-4.15; format: in vivo; settings: result in words
From the text: as §3, with “plants.” for “plants. [table] Tables 4.1-4.15 below show the effects of selected compounds of the general formula (I) according to Tables 1 to 3 on various harmful plants at an application rate corresponding to 1280 or 320 g/ha, which have been obtained by the aforementioned experimental method.”
Tables 4.1-4.15 below show the effects of selected compounds of the general formula (I) according to Tables 1 to 3 on various harmful plants at an application rate corresponding to 1280 or 320 g/ha, which have been obtained by the aforementioned experimental method.
For example, compounds no. I-008, I-056, I-057, I-061, I-067, I-070 and I-072 applied by the pre-emergence method have very good action (80% to 100% herbicidal action) against harmful plants such as Alopecurus myosuroides, Amaranthus retroflexus, Matricaria inodora, Polygonum convolvulus, Setaria viridis and Stellaria media at an application rate of 1.28 kg of active substance or less per hectare.

[20] = tested on: POLCO; test: Post-emergence herbicidal action against POLCO; format: in vivo, Polygonum convolvulus; settings: 320 g/ha, visual rating about 3 weeks after treatment
Procedure, shortened: as §2

[21] = tested on: ALOMY; test: Post-emergence herbicidal action against ALOMY; format: in vivo, Alopecurus myosuroides; settings: 1280 g/ha, post-emergence at one-leaf stage, rated visually after about 3 weeks vs untreated controls
Description: as §4

Row | Compound | Pre-emergence action against MATIN in % [1] | Pre-emergence action against SETVI in % [2] | Post-emergence action against VERPE in % [3] | Pre-emergence action against VERPE in % [4] | Pre-emergence action against STEME in % [5] | Post-emergence action against AMARE in % ([6]; 320 g/ha) | Post-emergence action against AMARE in % ([6]; 1280 g/ha) | Post-emergence action against PHBPU in % [7] | Pre-emergence action at 320 g/ha against AMARE in % [9] | Pre-emergence action against AMARE in % [9] | Post-emergence action against MATIN in % ([10]; 320 g/ha) | Post-emergence action against MATIN in % ([10]; 1280 g/ha) | Post-emergence action against STEME in % ([11]; 320 g/ha) | Post-emergence action against STEME in % ([11]; 1280 g/ha) | Post-emergence action against AVEFA in % [13] | Post-emergence action against VIOTR in % [14] | Pre-emergence action against VIOTR in % [18] | other results
1 | COC(=O)COc1nn(-c2ccccc2F)c(-c2ccccc2)c1Cl [I-015] | 90% | 90% | 90% | 90% | 90% | 80% | 80% | 80% | 90% | 90% | 90% | 90% | – | – | – | – | – | Pre-emergence action against PHBPU in % [8]: 100%
2 | COC(=O)COc1nn(-c2cccc(F)c2)c(-c2ccc(F)cc2)c1C#N [I-012] | 100% | – | – | – | – | 80% | 80% | 80% | 100% | 100% | – | – | 80% | 80% | 80% | 80% | – | Pre-emergence action at 1280 g/ha against CYPES in % [12]: 100%
3 | COC(=O)COc1nn(-c2ccc(F)cc2)c(-c2ccc(F)c(F)c2)c1Cl [I-025] | – | 80% | 80% | 80% | – | 80% | 80% | – | 90% | 90% | – | 80% | – | – | 80% | 80% | – | –
4 | COC(=O)COc1nn(-c2ccccc2F)c(-c2ccccc2)c1C#N [I-022] | 90% | 100% | 80% | 100% | 90% | 80% | 80% | – | 100% | 100% | 80% | 80% | 80% | 80% | 80% | – | 90% | Pre-emergence action at 1280 g/ha against ECHCG in % [15]: 80%; Post-emergence action against ECHCG in % [16]: 80%; Post-emergence action against SETVI in % [17]: 80%; herbicidal efficacy against harmful plants in the case of pre-emergence treatment [19]: good herbicidal efficacy; Pre-emergence action at 1280 g/ha against CYPES in % [12]: 100%; Post-emergence action against POLCO in % [20]: 80%; Post-emergence action against ALOMY in % [21]: 80%
5 | C#Cc1c(OCC(=O)OC)nn(-c2cccc(F)c2)c1-c1cccc(F)c1 [I-069] | 90% | 90% | – | – | 90% | – | 90% | 80% | 90% | 90% | – | – | – | 80% | – | – | 100% | Pre-emergence action at 1280 g/ha against ECHCG in % [15]: 80%; herbicidal efficacy against harmful plants in the case of pre-emergence treatment [19]: good herbicidal efficacy; Pre-emergence action against PHBPU in % [8]: 80%
6 | COC(=O)COc1nn(-c2cccc(Cl)c2)c(-c2ccc(F)c(F)c2)c1C#N [I-051] | – | – | 80% | – | – | – | – | 80% | – | 90% | 90% | 90% | – | 80% | 80% | 90% | 90% | Post-emergence action against POLCO in % [20]: 80%; Post-emergence action against ALOMY in % [21]: 80%
7 | COC(=O)COc1nn(-c2ccc(F)cc2)c(-c2ccc(F)cc2)c1C#N [I-009] | – | – | – | – | – | – | 80% | – | – | – | – | – | – | – | 80% | – | – | Post-emergence action against SETVI in % [17]: 80%
8 | COC(=O)COc1nn(-c2ccc(F)cc2)c(-c2ccc(F)c(F)c2)c1C#N [I-036] | – | 80% | 80% | – | – | – | – | 80% | – | 80% | 80% | 80% | 80% | 80% | 80% | 80% | – | –
